Measurements taken from article PMC8190631, “Molecular Interactions between Two LMP2A PY Motifs of EBV and WW Domains of E3 Ubiquitin Ligase AIP4” (Life, 2021).
Ends that are not written are not given here.

Biological target: T1, WW2 domain of human AIP4 (Homo sapiens, UniProt Q96J02)
T1 construct: The gene (114 bp) encoding the WW2 domain of human AIP4; Ssp DnaB intein (pTWIN1) (N, cleaved yes); made in house
Experiment: NMR titration (2D 1H-15N HSQC chemical shift perturbation) of WW2 domain with LMP2A constructs
Type: binding

T1 sequence (Q96J02 359-391): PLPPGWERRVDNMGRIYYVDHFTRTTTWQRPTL

Q: Which Kd does the source give for PPPPY [PY peptide] here?
A: 389 µM
